The assay deals with Sphingosine 1-phosphate receptor 5 (Homo sapiens, UniProt Q9H228). The assay can be described thus: In Vitro Functional Activity (Agonism) on Human S1P5 Receptors: The CHO-human-S1P5-Aeqorin assay was bought from Euroscreen, Brussels (Euroscreen, Technical dossier, Human Lysophospholid S1P5 (Edg8) receptor, DNA clone and CHO AequoScreen™ recombinant cell-line, catalog no: ES-593-A, September 2006). Human-S1P5-Aequorin cells express mitochondrial targeted apo-Aequorin. Cells have to be loaded with coelanterazine, in order to reconstitute active Aequorin. After binding of agonists to the human S1P5 receptor the intracellular calcium concentration increases and binding of calcium to the apo-Aequorin/coelenterazine complex leads to an oxidation reaction of coelenterazine, which results in the production of apo-Aequorin, coelenteramide, CO2 and light ([…]max 469 nm). This luminescent response is dependent on the agonist concentration. Luminescence is measured using the MicroBeta Jet (Perkin Elmer). Agonistic effects of compounds are expressed as pEC50. Compounds were tested at a 10 points half log concentration range, and 3 independent experiments were performed in single point's measurements. The assay is classed as cell-based.
Sequence of Sphingosine 1-phosphate receptor 5 (Q9H228 whole entry): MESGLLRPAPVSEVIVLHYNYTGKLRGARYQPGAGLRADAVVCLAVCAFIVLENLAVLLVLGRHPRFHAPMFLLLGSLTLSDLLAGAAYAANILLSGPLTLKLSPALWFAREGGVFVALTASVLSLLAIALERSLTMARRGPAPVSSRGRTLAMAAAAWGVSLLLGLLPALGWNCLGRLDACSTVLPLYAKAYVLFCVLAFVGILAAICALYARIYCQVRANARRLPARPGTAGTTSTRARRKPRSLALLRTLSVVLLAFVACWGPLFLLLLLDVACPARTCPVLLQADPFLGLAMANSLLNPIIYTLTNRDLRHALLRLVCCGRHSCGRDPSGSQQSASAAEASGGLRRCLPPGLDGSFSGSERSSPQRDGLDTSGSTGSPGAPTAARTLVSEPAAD

EC50 data for two molecules are collected here from ChEMBL document CHEMBL5726172, “Spiro-cyclic amine derivatives as S1P modulators” (2019).

Take `CC(C)c1cccc(F)c1COc1ccc2c(c1)OCC21CCN(CCC(=O)O)CC1`: the EC50 (as a rule, the concentration giving half of the maximal effect) came out at 50.1 nM.

With `O=C(O)CCN1CCCC2(COc3cc(OCc4c(Cl)cccc4C(F)(F)F)ccc32)C1` (configuration not stated), the concentration for a half-maximal effect (EC50) turned out to be 50.1 nM.
